{"source": "paper PMC6120666", "about": "(The EMBO Journal, 2018)", "assay_in_all_cases": "Drug affinity chromatography with c-ponatinib and LC-MS/MS (ponatinib interactome)", "format_in_all_cases": "binding", "key": {"[1]": {"molecular_target": "T1, proteins of U2OS cell lysate (Homo sapiens, UniProt P12814)", "T1 construct": "Proteins enriched by c-ponatinib from U2OS cell lysate; endogenous in cells; host or cells: U2OS cell lysate", "in_short": "(§1)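 U2OS cell lysate in NP-40 lysis buffer (2 mg protein per pulldown) was incubated with amine-derivatized NHS beads for 2 h at 4 °C. Bound proteins were washed, eluted with 100 mM formic acid, reduced, alkylated and trypsin-digested, then identified by nano-UPLC–MS/MS on Orbitrap instruments with a 60 min gradient.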"}, "[2]": {"molecular_target": "T2, proteins of U2OS cell lysate (Homo sapiens, UniProt Q06830)", "T2 construct": "Proteins enriched by c-ponatinib from U2OS cell lysate; endogenous in cells; host or cells: U2OS cell lysate", "T2 sequence (Q06830 whole entry)": "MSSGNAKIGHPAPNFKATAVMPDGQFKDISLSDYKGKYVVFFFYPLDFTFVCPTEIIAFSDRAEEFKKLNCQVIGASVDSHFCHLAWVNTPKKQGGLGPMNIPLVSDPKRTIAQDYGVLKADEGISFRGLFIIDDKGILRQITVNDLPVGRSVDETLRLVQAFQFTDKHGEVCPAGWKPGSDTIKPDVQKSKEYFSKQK", "in_short": "as §1"}, "[3]": {"molecular_target": "T3, proteins of U2OS cell lysate (Homo sapiens, UniProt P60228)", "T3 construct": "Proteins enriched by c-ponatinib from U2OS cell lysate; endogenous in cells; host or cells: U2OS cell lysate", "T3 sequence (P60228 whole entry)": "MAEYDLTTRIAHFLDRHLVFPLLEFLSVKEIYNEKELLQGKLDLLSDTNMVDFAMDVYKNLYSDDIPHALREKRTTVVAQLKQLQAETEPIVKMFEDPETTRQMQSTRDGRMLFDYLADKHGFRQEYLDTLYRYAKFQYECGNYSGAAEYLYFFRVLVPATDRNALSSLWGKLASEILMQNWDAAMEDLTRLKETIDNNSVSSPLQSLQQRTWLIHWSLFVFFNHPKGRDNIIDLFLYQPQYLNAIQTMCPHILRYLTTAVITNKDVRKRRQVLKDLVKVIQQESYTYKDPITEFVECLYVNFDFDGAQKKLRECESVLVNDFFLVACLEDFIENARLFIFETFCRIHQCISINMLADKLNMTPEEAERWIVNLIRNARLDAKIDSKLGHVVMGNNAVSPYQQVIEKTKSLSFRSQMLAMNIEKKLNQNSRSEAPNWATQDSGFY", "in_short": "as §1"}, "[4]": {"molecular_target": "T4, proteins of U2OS cell lysate (Homo sapiens, UniProt P62805)", "T4 construct": "Proteins enriched by c-ponatinib from U2OS cell lysate; endogenous in cells; host or cells: U2OS cell lysate", "in_short": "as §1"}, "[5]": {"molecular_target": "T5, proteins of U2OS cell lysate (Homo sapiens, UniProt P60900)", "T5 construct": "Proteins enriched by c-ponatinib from U2OS cell lysate; endogenous in cells; host or cells: U2OS cell lysate", "T5 sequence (P60900 whole entry)": "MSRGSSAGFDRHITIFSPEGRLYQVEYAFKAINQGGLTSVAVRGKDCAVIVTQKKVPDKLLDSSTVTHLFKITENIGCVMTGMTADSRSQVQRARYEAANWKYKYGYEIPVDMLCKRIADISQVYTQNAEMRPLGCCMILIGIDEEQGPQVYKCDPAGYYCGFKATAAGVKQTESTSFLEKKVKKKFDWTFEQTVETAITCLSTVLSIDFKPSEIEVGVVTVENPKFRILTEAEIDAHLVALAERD", "in_short": "as §1"}, "[6]": {"molecular_target": "T6, proteins of U2OS cell lysate (Homo sapiens, UniProt Q9Y6K9)", "T6 construct": "Proteins enriched by c-ponatinib from U2OS cell lysate; endogenous in cells; host or cells: U2OS cell lysate", "T6 sequence (Q9Y6K9 whole entry)": "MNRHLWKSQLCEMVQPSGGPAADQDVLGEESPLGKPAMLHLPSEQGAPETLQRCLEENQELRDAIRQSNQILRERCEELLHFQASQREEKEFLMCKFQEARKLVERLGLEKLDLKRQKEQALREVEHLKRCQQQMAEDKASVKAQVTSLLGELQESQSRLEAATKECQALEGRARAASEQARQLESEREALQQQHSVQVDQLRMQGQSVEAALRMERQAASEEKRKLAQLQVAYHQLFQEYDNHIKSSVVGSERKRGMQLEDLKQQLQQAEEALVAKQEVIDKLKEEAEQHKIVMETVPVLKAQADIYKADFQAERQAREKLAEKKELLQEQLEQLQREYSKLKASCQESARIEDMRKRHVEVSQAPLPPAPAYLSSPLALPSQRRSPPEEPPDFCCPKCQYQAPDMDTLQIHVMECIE", "in_short": "as §1"}, "[7]": {"molecular_target": "T7, proteins of U2OS cell lysate (Homo sapiens, UniProt P50613)", "T7 construct": "Proteins enriched by c-ponatinib from U2OS cell lysate; endogenous in cells; host or cells: U2OS cell lysate", "T7 sequence (P50613 whole entry)": "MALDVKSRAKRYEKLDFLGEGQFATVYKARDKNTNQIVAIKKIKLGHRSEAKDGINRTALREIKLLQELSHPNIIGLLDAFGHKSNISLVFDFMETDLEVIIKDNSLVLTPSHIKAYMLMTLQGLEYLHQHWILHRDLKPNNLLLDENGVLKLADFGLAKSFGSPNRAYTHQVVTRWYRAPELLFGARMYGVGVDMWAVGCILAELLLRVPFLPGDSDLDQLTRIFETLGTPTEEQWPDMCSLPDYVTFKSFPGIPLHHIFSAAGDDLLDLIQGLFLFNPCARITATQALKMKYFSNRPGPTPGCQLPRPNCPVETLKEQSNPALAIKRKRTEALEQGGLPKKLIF", "in_short": "as §1"}, "[8]": {"molecular_target": "T8, proteins of U2OS cell lysate (Homo sapiens, UniProt Q9BQE3)", "T8 construct": "Proteins enriched by c-ponatinib from U2OS cell lysate; endogenous in cells; host or cells: U2OS cell lysate", "T8 sequence (Q9BQE3 whole entry)": "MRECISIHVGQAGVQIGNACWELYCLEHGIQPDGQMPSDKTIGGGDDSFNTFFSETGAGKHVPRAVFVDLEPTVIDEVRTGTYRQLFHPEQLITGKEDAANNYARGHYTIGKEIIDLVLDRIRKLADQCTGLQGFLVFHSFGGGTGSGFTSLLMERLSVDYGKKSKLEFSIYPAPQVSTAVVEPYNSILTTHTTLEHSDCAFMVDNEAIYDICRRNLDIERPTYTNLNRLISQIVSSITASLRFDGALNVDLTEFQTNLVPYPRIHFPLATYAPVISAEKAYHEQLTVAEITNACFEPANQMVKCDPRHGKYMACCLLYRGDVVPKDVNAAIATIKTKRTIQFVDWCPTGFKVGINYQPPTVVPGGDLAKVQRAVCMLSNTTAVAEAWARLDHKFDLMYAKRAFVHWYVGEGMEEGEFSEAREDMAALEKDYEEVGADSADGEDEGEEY", "in_short": "as §1"}, "[9]": {"molecular_target": "T9, proteins of U2OS cell lysate (Homo sapiens, UniProt P10515)", "T9 construct": "Proteins enriched by c-ponatinib from U2OS cell lysate; endogenous in cells; host or cells: U2OS cell lysate", "in_short": "as §1"}, "[10]": {"molecular_target": "T10, proteins of U2OS cell lysate (Homo sapiens, UniProt O95373)", "T10 construct": "Proteins enriched by c-ponatinib from U2OS cell lysate; endogenous in cells; host or cells: U2OS cell lysate", "T10 sequence (O95373 whole entry)": "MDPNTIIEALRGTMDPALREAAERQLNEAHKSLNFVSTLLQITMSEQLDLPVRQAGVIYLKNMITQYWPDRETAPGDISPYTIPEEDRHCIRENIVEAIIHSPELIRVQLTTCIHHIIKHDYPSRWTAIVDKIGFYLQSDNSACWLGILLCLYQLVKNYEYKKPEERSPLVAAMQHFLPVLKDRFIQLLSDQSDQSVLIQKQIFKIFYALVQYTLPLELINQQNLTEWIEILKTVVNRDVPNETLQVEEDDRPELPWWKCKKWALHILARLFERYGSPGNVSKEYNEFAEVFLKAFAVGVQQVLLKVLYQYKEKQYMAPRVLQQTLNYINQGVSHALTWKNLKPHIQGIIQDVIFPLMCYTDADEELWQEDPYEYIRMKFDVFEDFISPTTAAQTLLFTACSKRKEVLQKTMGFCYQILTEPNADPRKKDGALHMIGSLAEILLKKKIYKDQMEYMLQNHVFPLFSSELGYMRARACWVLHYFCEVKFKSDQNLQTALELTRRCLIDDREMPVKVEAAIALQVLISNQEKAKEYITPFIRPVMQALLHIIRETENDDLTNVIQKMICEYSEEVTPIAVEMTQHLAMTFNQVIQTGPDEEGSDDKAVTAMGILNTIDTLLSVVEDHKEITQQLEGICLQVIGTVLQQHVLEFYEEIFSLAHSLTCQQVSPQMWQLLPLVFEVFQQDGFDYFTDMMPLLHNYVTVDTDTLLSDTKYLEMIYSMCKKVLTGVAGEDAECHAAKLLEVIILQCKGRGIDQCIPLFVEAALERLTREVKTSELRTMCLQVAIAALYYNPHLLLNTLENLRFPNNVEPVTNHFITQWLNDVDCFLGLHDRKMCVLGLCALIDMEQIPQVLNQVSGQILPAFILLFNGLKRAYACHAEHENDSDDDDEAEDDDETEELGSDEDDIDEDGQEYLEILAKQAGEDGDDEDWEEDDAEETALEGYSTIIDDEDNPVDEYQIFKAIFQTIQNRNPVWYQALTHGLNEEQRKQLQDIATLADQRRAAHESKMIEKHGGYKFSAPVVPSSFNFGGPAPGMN", "in_short": "as §1"}, "[11]": {"system": "proteins of U2OS cell lysate", "in_short": "as §1"}, "[12]": {"molecular_target": "T11, proteins of U2OS cell lysate (Homo sapiens, UniProt P04406)", "T11 construct": "Proteins enriched by c-ponatinib from U2OS cell lysate; endogenous in cells; host or cells: U2OS cell lysate", "T11 sequence (P04406 whole entry)": "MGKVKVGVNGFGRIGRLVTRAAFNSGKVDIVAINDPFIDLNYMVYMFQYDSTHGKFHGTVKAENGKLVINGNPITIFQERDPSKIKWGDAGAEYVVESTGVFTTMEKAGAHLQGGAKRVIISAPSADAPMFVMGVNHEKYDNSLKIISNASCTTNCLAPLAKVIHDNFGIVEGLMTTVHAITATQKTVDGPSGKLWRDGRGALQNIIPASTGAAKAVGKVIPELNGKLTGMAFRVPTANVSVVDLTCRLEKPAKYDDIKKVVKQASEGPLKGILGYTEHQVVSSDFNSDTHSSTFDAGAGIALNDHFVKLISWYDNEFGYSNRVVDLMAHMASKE", "in_short": "as §1"}, "[13]": {"molecular_target": "T12, proteins of U2OS cell lysate (Homo sapiens, UniProt Q9UQ35)", "T12 construct": "Proteins enriched by c-ponatinib from U2OS cell lysate; endogenous in cells; host or cells: U2OS cell lysate", "in_short": "as §1"}, "[14]": {"molecular_target": "T13, proteins of U2OS cell lysate (Homo sapiens, UniProt Q9NVA2)", "T13 construct": "Proteins enriched by c-ponatinib from U2OS cell lysate; endogenous in cells; host or cells: U2OS cell lysate", "T13 sequence (Q9NVA2 whole entry)": "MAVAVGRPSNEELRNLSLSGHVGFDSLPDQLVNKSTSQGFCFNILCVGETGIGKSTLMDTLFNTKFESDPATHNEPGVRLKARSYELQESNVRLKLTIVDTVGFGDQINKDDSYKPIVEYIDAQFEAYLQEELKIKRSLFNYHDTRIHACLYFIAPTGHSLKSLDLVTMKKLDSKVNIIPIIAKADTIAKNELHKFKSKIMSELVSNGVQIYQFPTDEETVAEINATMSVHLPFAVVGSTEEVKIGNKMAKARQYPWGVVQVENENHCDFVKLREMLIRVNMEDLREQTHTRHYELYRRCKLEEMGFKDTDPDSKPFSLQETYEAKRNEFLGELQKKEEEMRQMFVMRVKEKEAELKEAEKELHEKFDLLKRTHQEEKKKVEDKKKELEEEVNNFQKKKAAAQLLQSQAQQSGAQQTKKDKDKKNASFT", "in_short": "as §1"}, "[15]": {"molecular_target": "T14, proteins of U2OS cell lysate (Homo sapiens, UniProt Q96P70)", "T14 construct": "Proteins enriched by c-ponatinib from U2OS cell lysate; endogenous in cells; host or cells: U2OS cell lysate", "in_short": "as §1"}, "[16]": {"molecular_target": "T15, proteins of U2OS cell lysate (Homo sapiens, UniProt P49327)", "T15 construct": "Proteins enriched by c-ponatinib from U2OS cell lysate; endogenous in cells; host or cells: U2OS cell lysate", "in_short": "as §1"}, "[17]": {"molecular_target": "T16, proteins of U2OS cell lysate (Homo sapiens, UniProt P17987)", "T16 construct": "Proteins enriched by c-ponatinib from U2OS cell lysate; endogenous in cells; host or cells: U2OS cell lysate", "T16 sequence (P17987 whole entry)": "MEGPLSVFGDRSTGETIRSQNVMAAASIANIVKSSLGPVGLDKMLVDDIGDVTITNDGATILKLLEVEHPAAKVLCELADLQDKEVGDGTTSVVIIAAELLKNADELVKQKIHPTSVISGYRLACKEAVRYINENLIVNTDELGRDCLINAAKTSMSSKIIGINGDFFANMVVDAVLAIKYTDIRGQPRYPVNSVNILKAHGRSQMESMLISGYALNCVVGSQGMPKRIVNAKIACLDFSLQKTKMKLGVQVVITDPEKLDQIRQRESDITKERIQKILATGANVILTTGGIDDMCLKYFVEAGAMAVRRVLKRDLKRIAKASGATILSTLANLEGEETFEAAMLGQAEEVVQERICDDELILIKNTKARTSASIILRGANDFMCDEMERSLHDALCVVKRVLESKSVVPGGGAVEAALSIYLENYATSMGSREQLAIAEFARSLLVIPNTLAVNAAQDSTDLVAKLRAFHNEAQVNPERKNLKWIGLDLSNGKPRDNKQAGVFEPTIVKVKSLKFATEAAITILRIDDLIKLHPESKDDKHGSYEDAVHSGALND", "in_short": "as §1"}, "[18]": {"molecular_target": "T17, proteins of U2OS cell lysate (Homo sapiens, UniProt Q9BWU1)", "T17 construct": "Proteins enriched by c-ponatinib from U2OS cell lysate; endogenous in cells; host or cells: U2OS cell lysate", "T17 sequence (Q9BWU1 whole entry)": "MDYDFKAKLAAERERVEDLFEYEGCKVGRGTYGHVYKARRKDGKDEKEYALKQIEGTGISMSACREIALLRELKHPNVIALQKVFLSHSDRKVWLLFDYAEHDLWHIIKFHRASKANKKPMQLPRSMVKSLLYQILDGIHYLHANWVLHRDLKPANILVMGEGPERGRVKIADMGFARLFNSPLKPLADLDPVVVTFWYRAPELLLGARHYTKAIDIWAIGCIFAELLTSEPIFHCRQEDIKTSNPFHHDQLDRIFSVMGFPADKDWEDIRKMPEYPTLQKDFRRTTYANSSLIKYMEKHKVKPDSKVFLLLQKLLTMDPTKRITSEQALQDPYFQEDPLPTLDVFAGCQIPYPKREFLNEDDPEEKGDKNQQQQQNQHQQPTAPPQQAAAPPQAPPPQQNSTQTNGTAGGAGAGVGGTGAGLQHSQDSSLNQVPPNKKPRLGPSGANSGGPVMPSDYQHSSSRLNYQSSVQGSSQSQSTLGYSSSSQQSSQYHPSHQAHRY", "in_short": "as §1"}}}
{"smiles": "Cc1ccc(C(=O)Nc2ccc(CN3CCN(C)CC3)c(C(F)(F)F)c2)cc1C#Cc1cnc2cccnn12", "note": "[PON]", "values": [{"measurement": "Average LFQ PON_WT", "setting": "[1]; ACTN1, Alpha-actinin-1", "value": 22.3393}, {"measurement": "Average LFQ PON_WT", "setting": "[2]; PRDX1, Peroxiredoxin-1", "value": 22.2382}, {"measurement": "Average LFQ PON_WT", "setting": "[3]; EIF3E, Eukaryotic translation initiation factor 3 subunit E", "value": 22.7111}, {"measurement": "Average LFQ PON_WT", "setting": "[4]; HIST1H4A, Histone H4", "value": 22.1811}, {"measurement": "Average LFQ PON_WT", "setting": "[5]; PSMA6, Proteasome subunit alpha type-6", "value": 22.244}, {"measurement": "Average LFQ PON_WT", "setting": "[6]; IKBKG, NF-kappa-B essential modulator", "value": 21.7256}, {"measurement": "Average LFQ PON_WT", "setting": "[7]; CDK7, Cyclin-dependent kinase 7", "value": 22.0619}, {"measurement": "Average LFQ PON_WT", "setting": "[8]; TUBA1C, Tubulin alpha-1C chain", "value": 21.711}, {"measurement": "Average LFQ PON_WT", "setting": "[9]; DLAT, Dihydrolipoyllysine-residue acetyltransferase component of pyruvate dehydrogenase complex, mitochondrial", "value": 21.6984}, {"measurement": "Average LFQ PON_WT", "setting": "[10]; IPO7, Importin-7", "value": 23.1828}, {"measurement": "Average LFQ PON_WT", "setting": "[11]; ACTG1;ACTB;ACTG2;ACTA1;ACTC1;ACTA2, Actin, cytoplasmic 2", "value": 29.1554}, {"measurement": "Average LFQ PON_WT", "setting": "[11]; HIST1H1C;HIST1H1E;HIST1H1D;HIST1H1A, Histone H1.2", "value": 24.5034}, {"measurement": "Average LFQ PON_WT", "setting": "[12]; GAPDH, Glyceraldehyde-3-phosphate dehydrogenase", "value": 22.9925}, {"measurement": "Average LFQ PON_WT", "setting": "[13]; SRRM2, Serine/arginine repetitive matrix protein 2", "value": 21.862}, {"measurement": "Average LFQ PON_WT", "setting": "[14]; SEPT11, Septin-11", "value": 21.5746}, {"measurement": "Average LFQ PON_WT", "setting": "[15]; IPO9, Importin-9", "value": 21.5093}, {"measurement": "Average LFQ PON_WT", "setting": "[16]; FASN, Fatty acid synthase", "value": 22.4378}, {"measurement": "Average LFQ PON_WT", "setting": "[17]; TCP1, T-complex protein 1 subunit alpha", "value": 22.697}, {"measurement": "Average LFQ PON_WT", "setting": "[18]; CDK19, Cyclin-dependent kinase 19", "value": 21.5435}]}
{"smiles": "Cc1ccc(C(=O)Nc2ccc(CN3CCN(CCCN)CC3)c(C(F)(F)F)c2)cc1C#Cc1cnc2cccnn12", "note": "[c-ponatinib, reference compound]", "values": [{"measurement": "Average LFQ intensity", "setting": "[1]; captured protein ACTN1, Rank 166", "value": 22.3393}, {"measurement": "Average LFQ intensity", "setting": "[2]; captured protein PRDX1, Rank 177", "value": 22.2382}, {"measurement": "Average LFQ intensity", "setting": "[3]; captured protein EIF3E, Rank 148", "value": 22.7111}, {"measurement": "Average LFQ intensity", "setting": "[4]; captured protein HIST1H4A, Rank 180", "value": 22.1811}, {"measurement": "Average LFQ intensity", "setting": "[5]; captured protein PSMA6, Rank 175", "value": 22.244}, {"measurement": "Average LFQ intensity", "setting": "[6]; captured protein IKBKG, Rank 212", "value": 21.7256}, {"measurement": "Average LFQ intensity", "setting": "[7]; captured protein CDK7, Rank 187", "value": 22.0619}, {"measurement": "Average LFQ intensity", "setting": "[8]; captured protein TUBA1C, Rank 213", "value": 21.711}, {"measurement": "Average LFQ intensity", "setting": "[9]; captured protein DLAT, Rank 215", "value": 21.6984}, {"measurement": "Average LFQ intensity", "setting": "[10]; captured protein IPO7, Rank 116", "value": 23.1828}, {"measurement": "Average LFQ intensity", "setting": "[11]; captured protein ACTR1A;ACTR1B, Rank 131", "value": 22.8935}, {"measurement": "Average LFQ intensity", "setting": "[11]; captured protein ATP1A1;ATP1A3;ATP1A2, Rank 167", "value": 22.3247}, {"measurement": "Average LFQ intensity", "setting": "[11]; captured protein CDK1;CDK2, Rank 143", "value": 22.743}, {"measurement": "Average LFQ intensity", "setting": "[11]; captured protein DYNLRB1;DYNLRB2, Rank 170", "value": 22.2764}, {"measurement": "Average LFQ intensity", "setting": "[11]; captured protein GNB2;GNB4;GNB1, Rank 150", "value": 22.669}, {"measurement": "Average LFQ intensity", "setting": "[11]; captured protein H3F3B;H3F3A;HIST2H3A;HIST3H3;HIST1H3A;H3F3C;HIST2H3PS2, Rank 159", "value": 22.4876}, {"measurement": "Average LFQ intensity", "setting": "[11]; captured protein HNRNPA1;HNRNPA1L2, Rank 216", "value": 21.6974}, {"measurement": "Average LFQ intensity", "setting": "[11]; captured protein LUC7L2;LUC7L, Rank 142", "value": 22.7445}, {"measurement": "Average LFQ intensity", "setting": "[11]; captured protein MYL12A;MYL12B, Rank 201", "value": 21.8427}, {"measurement": "Average LFQ intensity", "setting": "[11]; captured protein OGDH;OGDHL, Rank 189", "value": 22.0277}, {"measurement": "Average LFQ intensity", "setting": "[11]; captured protein PSMA7;PSMA8, Rank 184", "value": 22.0977}, {"measurement": "Average LFQ intensity", "setting": "[11]; captured protein RAB11A;RAB11B, Rank 162", "value": 22.3634}, {"measurement": "Average LFQ intensity", "setting": "[11]; captured protein RPS10;RPS10P5, Rank 217", "value": 21.6692}, {"measurement": "Average LFQ intensity", "setting": "[11]; captured protein RPS26;RPS26P11, Rank 219", "value": 21.6239}, {"measurement": "Average LFQ intensity", "setting": "[11]; captured protein RPS27L;RPS27, Rank 208", "value": 21.7512}, {"measurement": "Average LFQ intensity", "setting": "[11]; captured protein SNRPN;SNRPB, Rank 206", "value": 21.7664}, {"measurement": "Average LFQ intensity", "setting": "[12]; captured protein GAPDH, Rank 124", "value": 22.9925}, {"measurement": "Average LFQ intensity", "setting": "[13]; captured protein SRRM2, Rank 197", "value": 21.862}, {"measurement": "Average LFQ intensity", "setting": "[14]; captured protein 2011-09-01 (Septin-11), Rank 222", "value": 21.5746}, {"measurement": "Average LFQ intensity", "setting": "[15]; captured protein IPO9, Rank 229", "value": 21.5093}, {"measurement": "Average LFQ intensity", "setting": "[16]; captured protein FASN, Rank 161", "value": 22.4378}, {"measurement": "Average LFQ intensity", "setting": "[17]; captured protein TCP1, Rank 149", "value": 22.697}, {"measurement": "Average LFQ intensity", "setting": "[18]; captured protein CDK19, Rank 226", "value": 21.5435}]}
